Patent publication US12116357B2, “Heteroaryl-triazole and heteroaryl-tetrazole compounds as pesticides” (Bayer Aktiengesellschaft, priority 2018, dated 2024)
Where two headings read alike, the source gives them in different places.

What was measured:
[1] = log P by HPLC on reversed phase columns (EEC directive 79/831 Annex V.A8); type: physicochemical; settings: LC-UV, neutral range; for chromatographic logP: reversed phase HPLC column
Myzus persicae = Myzus persicae oral test; type: in vivo; settings: 120 h
Protocol: • Solvent: 100 parts by weight acetone
To produce a suitable preparation of active compound, 1 part by weight of active compound is mixed with the stated amount of solvent, and the concentrate is diluted with water to the desired concentration. 50 μl compound solution is filled in microtiter plates and 150 μl IPL41 insect medium (33%+15% sugar) is added to obtain a total volume of 200 μl per well. Afterwards the plates are sealed with parafilm through which a mixed population of the green peach aphid (Myzus persicae) can suck on the compound preparation.
After 5 days mortality in % is determined. 100% means all aphids have been killed and 0% means none of the aphids have been killed.

Ctenocephalides felis [2] = assay: Ctenocephalides felis in-vitro contact test, adult cat flea; type: in vivo; settings: 5 μg/cm^2, after 48 hours, read-out: efficacy (fleas dead or moribund)
Protocol: 9 mg compound is solved in 1 ml acetone and diluted with acetone to the desired concentration. 250 μl of the test solution is filled in 25 ml glass test tubes and homogeneously distributed on the inner walls by rotation and tilting on a shaking device (2 h at 30 rpm). With a compound concentration of 900 ppm, an inner surface of 44.7 cm^2 and a homogeneous distribution, a dose of 5 μg/cm^2 is achieved.
After the solvent has evaporated, each test tube is filled with 5-10 adult cat fleas (Ctenocephalides felis), closed with a perforated lid and incubated in a lying position at room temperature and relative humidity. After 48 hours efficacy is determined. The fleas are patted on the ground of the tubes and are incubated on a heating plate at 45-50° C. for at most 5 minutes. Immotile or uncoordinated moving fleas, which are not able to escape the heat by climbing upwards, are marked as dead or moribund.
An efficacy of 100% means all fleas are dead or moribund; 0% means no fleas are dead or moribund.

Nilaparvata lugens = Nilaparvata lugens spray test; type: in vivo; settings: 96 h
Protocol: (§1) • Solvent: 78.0 parts by weight of acetone • 1.5 parts by weight of dimethylformamide • Emulsifier: alkylarylpolyglycol ether
(§2) To produce a suitable preparation of active compound, 1 part by weight of active compound is mixed with the stated amount of solvents and is diluted with water, containing an emulsifier concentration of 1000 ppm, to the desired concentration. Further test concentrations are prepared by dilution with emulsifier containing water.
Rice plants (Oryza sativa) are sprayed with a preparation of the active ingredient of the desired concentration and the plants are infested with the brown planthopper (Nilaparvata lugens).
After 4 days mortality in % is determined. 100% means all planthoppers have been killed and 0% means none of the planthoppers have been killed.

Phaedon cochleariae = Phaedon cochleariae spray test; type: in vivo; settings: 168 h, after 7 days
Protocol: as §1, §2
Chinese cabbage (Brassica pekinensis) leaf disks are sprayed with a preparation of the active ingredient of the desired concentration. Once dry, the leaf disks are infested with mustard beetle larvae (Phaedon cochleariae).
After 7 days mortality in % is determined. 100% means all beetle larvae have been killed and 0% means none of the beetle larvae have been killed.

Nezara viridula = Nezara viridula spray test; type: in vivo; settings: 96 h
Protocol: as §1
as §2, with “solvent,” for “solvents”, “and the concentrate” for “and”
Barley plants (Hordeum vulgare) infested with larvae of the southern green stink bug (Nezara viridula) are sprayed with a test solution containing the desired concentration of the active ingredient.
After 4 days mortality in % is determined. 100% means all the stink bugs have been killed; 0% means none of the stink bugs have been killed.

Ctenocephalides felis [3] = assay: Ctenocephalides felis oral test; type: in vivo; settings: 48 h, 100 ppm in cattle blood, after 2 days
Protocol: (§3) • Solvent: dimethyl sulfoxide
To produce a suitable preparation of active compound, 10 mg of active compound are dissolved in 0.5 ml solvent, and the concentrate is diluted with cattle blood to the desired concentration.
Approximately 20 adult unfed cat fleas (Ctenocephalides felis) are placed in flea chambers. The blood chamber, sealed with parafilm on the bottom, are filled with cattle blood supplied with compound solution and placed on the gauze covered top of the flea chamber, so that the fleas are able to suck the blood. The blood chamber is heated to 37° C. whereas the flea chamber is kept at room temperature.
After 2 days mortality in % is determined. 100% means all the fleas have been killed; 0% means none of the fleas have been killed.

Spodoptera frugiperda = Spodoptera frugiperda spray test; type: in vivo; settings: 168 h
Protocol: • Solvent: 78.0 parts by weight acetone • 1.5 parts by weight dimethylformamide • Emulsifier: alkylarylpolyglycol ether
as §2
Maize (Zea mays) leaf sections are sprayed with a preparation of the active ingredient of the desired concentration. Once dry, the leaf sections are infested with fall armyworm larvae (Spodoptera frugiperda).
After 7 days mortality in % is determined. 100% means all caterpillars have been killed and 0% means none of the caterpillars have been killed.

Boophilus microplus = Boophilus microplus injection test; type: in vivo; settings: Rhipicephalus microplus, 168 h, 20 μg/animal, egg deposition after 7 days, read-out: efficacy (infertile eggs)
Protocol: as §3
To produce a suitable preparation of active compound, 10 mg of active compound are dissolved in 0.5 ml solvent, and the concentrate is diluted with solvent to the desired concentration.
Five adult engorged female ticks (Boophilus microplus) are injected with 1 μl compound solution into the abdomen. The ticks are transferred into replica plates and incubated in a climate chamber.
After 7 days egg deposition of fertile eggs is monitored. Eggs where fertility is not visible are stored in a climate chamber till hatching after about 42 days. An efficacy of 100% means all eggs are infertile; 0% means all eggs are fertile.

[4] = system: Aedes aegypti strain MONHEIM; assay: Aedes aegypti test (surface treatment & contact assay); type: in vivo; settings: 24 hours after contact, read-out: efficacy (mortality); for mortality at 20 mg/m2: surface concentration 20 mg/m^2, 30 min exposure
Protocol: (§4) • Solvent: Aceton+2000 ppm rapeseed oil methyl ester (RME)
(§5) In order to produce a sufficient, active ingredient containing solution it is necessary to solve the test compound in the solvent-mix (acetone at 2 mg/ml/RME 2000 ppm). This solution is pipetted onto a glazed tile and after evaporation of the acetone, adult mosquitoes of the species Aedes aegypti strain MONHEIM are placed onto the dried surface. The exposure time is 30 minutes.
(§6) Mortality in percent (%) is determined 24 hours after contact of the insects to the treated surface. 100% mortality means that all tested insects are dead, whereas 0% means that no insect died.

[5] = system: Musca domestica strain WHO-N; assay: Musca domestica test (surface treatment & contact assay); type: in vivo; settings: 24 hours after contact, read-out: efficacy (mortality)
Protocol: as §4
as §5, with “flies” for “mosquitoes”, “Musca domestica” for “Aedes aegypti”, “WHO-N” for “MONHEIM”
as §6

[6] = 0.001 molar ammonium acetate in water and acetonitrile (table footnote), read-out: LogP^[a]
[7] = surface concentration 4 mg/m^2, 30 min exposure

## CC(NCC1CCCO1)c1ncnn1-c1ncccn1 (stereo not shown) [a-012]
[1]; [6]
  chromatographic logP: 0.8

## CC(c1ncnn1-c1ncccn1)N(CC1CCCO1)C(=O)c1cc(Cl)cc(C(F)(F)F)c1 (stereo not shown) [Example I-012]
Myzus persicae
  mortality at 20 ppm: 100%

## CC(NC1CC1)c1ncnn1-c1ncccn1 (stereo not shown) [a-002]
[1]; [6]
  chromatographic logP: 0.75

## CC(NCc1ccccn1)c1ncnn1-c1ncccn1 (stereo not shown) [a-001, N-(pyridin-2-ylmethyl)-1-[1-(pyrimidin-2-yl)-1H-1,2,4-triazol-5-yl]ethanamine]
[1]; [6]
  chromatographic logP: 0.72
[1]; 0.001 molar ammonium acetate in water and acetonitrile, read-out: log P^[b]
  chromatographic logP: 0.77

## CC(c1ncnn1-c1ncccn1)N(C(=O)c1cc(Cl)cc(C(F)(F)F)c1)C1CSC1 (stereo not shown) [Example I-024]
Ctenocephalides felis [2]
  pest or weed control at 5 µg/cm2: 100%
Myzus persicae
  mortality at 4 ppm: 100%
  mortality at 20 ppm: 100%
Nilaparvata lugens
  mortality at 500 g/ha: 100%
Phaedon cochleariae
  mortality at 500 g/ha: 100%
Nezara viridula
  mortality at 500 g/ha: 100%
Ctenocephalides felis [3]
  mortality at 100 ppm: 100%

## CC(NCC1(c2ccccc2)CC1)c1ncnn1-c1ncccn1 (stereo not shown) [a-005]
[1]; [6]
  chromatographic logP: 1.9

## CC(NCC1CCCCC1)c1ncnn1-c1ncccn1 (stereo not shown) [a-016]
[1]; [6]
  chromatographic logP: 2.03

## CC(NCC1CCOC1)c1ncnn1-c1ncccn1 (stereo not shown) [a-013]
[1]; [6]
  chromatographic logP: 0.66

## CC(c1ncnn1-c1ncccn1)N(Cc1ccncc1)C(=O)c1cc(Cl)cc(C(F)(F)F)c1 (stereo not shown) [Example I-014]
Myzus persicae
  mortality at 4 ppm: 100%
  mortality at 20 ppm: 100%
Spodoptera frugiperda
  mortality at 500 g/ha: 100%
Boophilus microplus
  pest or weed control at 0.02 mg: 100%
Nilaparvata lugens
  mortality at 500 g/ha: 100%
Phaedon cochleariae
  mortality at 500 g/ha: 100%
Nezara viridula
  mortality at 500 g/ha: 100%
Ctenocephalides felis [3]
  mortality at 100 ppm: 100%

## CC(NCC1CCOC1)c1ncnn1-c1ncccn1 (stereo not shown) [a-015]
[1]; 0.001 molar ammonium acetate in water and acetonitrile (table footnote)
  LogP^[a]: 0.66

## CC(c1ncnn1-c1ncccn1)N(Cc1cccnc1)C(=O)c1cc(Cl)cc(C(F)(F)F)c1 (stereo not shown) [Example I-019]
[4]
  mortality at 20 mg/m2: 90 to 100%
Myzus persicae
  mortality at 4 ppm: 100%
  mortality at 20 ppm: 100%
Spodoptera frugiperda
  mortality at 500 g/ha: 100%
Boophilus microplus
  pest or weed control at 0.02 mg: 100%
Nilaparvata lugens
  mortality at 500 g/ha: 100%
Phaedon cochleariae
  mortality at 500 g/ha: 100%
Nezara viridula
  mortality at 500 g/ha: 100%
Ctenocephalides felis [3]
  mortality at 100 ppm: 90%

## CSCCNC(C)c1ncnn1-c1ccc(C#N)cn1 (stereo not shown) [a-025]
[1]; [6]
  chromatographic logP: 1.65

## CC(c1ncnn1-c1ncccn1)N(Cc1ccc(C#N)cc1)C(=O)c1cc(Cl)cc(C(F)(F)F)c1 (stereo not shown) [Example I-018]
[5]; [7]
  mortality at 4 mg/m2: 90 to 100%
[5]; surface concentration 20 mg/m^2, 30 min exposure
  mortality at 20 mg/m2: 90 to 100%
[4]; [7]
  mortality at 4 mg/m2: 80 to 100%
[4]
  mortality at 20 mg/m2: 90 to 100%
Myzus persicae
  mortality at 4 ppm: 100%
  mortality at 20 ppm: 100%
Spodoptera frugiperda
  mortality at 500 g/ha: 100%
Boophilus microplus
  pest or weed control at 0.02 mg: 90%
Phaedon cochleariae
  mortality at 500 g/ha: 100%
Nezara viridula
  mortality at 500 g/ha: 100%
Ctenocephalides felis [3]
  mortality at 100 ppm: 100%

## CC(NCCc1ccc(F)cc1)c1ncnn1-c1ncccn1 (stereo not shown) [a-009]
[1]; [6]
  chromatographic logP: 1.62

## CC(NCC1(C)CC1)c1ncnn1-c1ncccn1 (stereo not shown) [a-010]
[1]; [6]
  chromatographic logP: 1.73

## CC(NCc1ncccn1)c1ncnn1-c1ncccn1 (stereo not shown) [a-011]
[1]; [6]
  chromatographic logP: 0.38

## CC(c1ncnn1-c1ncccn1)N(CC1CCOC1)C(=O)c1cc(Cl)cc(C(F)(F)F)c1 (stereo not shown) [Example I-015]
Myzus persicae
  mortality at 20 ppm: 100%
Spodoptera frugiperda
  mortality at 500 g/ha: 100%
Boophilus microplus
  pest or weed control at 0.02 mg: 100%
Phaedon cochleariae
  mortality at 500 g/ha: 100%
Ctenocephalides felis [3]
  mortality at 100 ppm: 100%

## CC(c1ncnn1-c1ncccn1)N(CC1CCOCC1)C(=O)c1cc(Cl)cc(C(F)(F)F)c1 (stereo not shown) [Example I-008]
Myzus persicae
  mortality at 20 ppm: 100%
Phaedon cochleariae
  mortality at 500 g/ha: 100%
